Laboratory results published in US6503881B2 (priority 1996, dated 2003).
≈ marks a conversion by molar mass, not a printed value. Where two headings read alike, the source gives them in different places. Peptide text beside a SMILES is read from it.

Assays:
[1] = test system: microorganisms with acquired resistance; settings: for FIC: peptide + Vancomycin
[2] = S. haemolyticus SH8463, pair Erythromycin / MBI 31
[3] = S. haemolyticus SH8472, pair Erythromycin / MBI 31
[4] = S. haemolyticus SH8564, pair Erythromycin / MBI 31
[5] = S. haemolyticus SH8575, pair Erythromycin / MBI 31

## CC[C@H]1OC(=O)[C@H](C)[C@@H](O[C@H]2C[C@@](C)(OC)[C@@H](O)[C@H](C)O2)[C@H](C)[C@@H](O[C@@H]2O[C@H](C)C[C@H](N(C)C)[C@H]2O)[C@](C)(O)C[C@@H](C)C(=O)[C@H](C)[C@@H](O)[C@]1(C)O [Erythromycin, reference compound]
[1]; S. aureus SA7609, pair Erythromycin / MBI 26
  MIC comb.: 0.5 µg/mL (≈ 0.681 µM)
[1]; S. aureus SA7795, pair Erythromycin / MBI 26
  MIC comb.: 1 µg/mL (≈ 1.36 µM)
[1]; S. aureus SA7795, pair Erythromycin / MBI 31
  MIC comb.: 4 µg/mL (≈ 5.45 µM)
[1]; S. aureus SA7796, pair Erythromycin / MBI 26
  MIC comb.: 1 µg/mL (≈ 1.36 µM)
[1]; S. aureus SA7796, pair Erythromycin / MBI 31
  MIC comb.: 2 µg/mL (≈ 2.73 µM)
[1]; S. aureus SA7818, pair Erythromycin / MBI 31
  MIC comb.: 2 µg/mL (≈ 2.73 µM)
[1]; S. epidermidis SE8410, pair Erythromycin / MBI 26
  MIC comb.: 0.5 µg/mL (≈ 0.681 µM)
[1]; S. epidermidis SE8410, pair Erythromycin / MBI 31
  MIC comb.: 0.5 µg/mL (≈ 0.681 µM)
[1]; S. epidermidis SE8411, pair Erythromycin / MBI 26
  MIC comb.: 0.5 µg/mL (≈ 0.681 µM)
[1]; S. epidermidis SE8411, pair Erythromycin / MBI 31
  MIC comb.: 0.5 µg/mL (≈ 0.681 µM)
[1]; S. epidermidis SE8503, pair Erythromycin / MBI 26
  MIC comb.: 0.5 µg/mL (≈ 0.681 µM)
[1]; S. epidermidis SE8503, pair Erythromycin / MBI 31
  MIC comb.: 0.5 µg/mL (≈ 0.681 µM)
[1]; S. epidermidis SE8565, pair Erythromycin / MBI 26
  MIC comb.: 0.5 µg/mL (≈ 0.681 µM)
[1]; S. epidermidis SE8565, pair Erythromycin / MBI 31
  MIC comb.: 0.5 µg/mL (≈ 0.681 µM)
[1]; S. haemolyticus SH8463, pair Erythromycin / MBI 26
  MIC comb.: 0.5 µg/mL (≈ 0.681 µM)
[1]; [2]
  MIC comb.: 0.5 µg/mL (≈ 0.681 µM)
[1]; S. haemolyticus SH8472, pair Erythromycin / MBI 26
  MIC comb.: 0.5 µg/mL (≈ 0.681 µM)
[1]; [3]
  MIC comb.: 0.5 µg/mL (≈ 0.681 µM)
[1]; [4]
  MIC comb.: 2 µg/mL (≈ 2.73 µM)
[1]; S. haemolyticus SH8575, pair Erythromycin / MBI 26
  MIC comb.: 2 µg/mL (≈ 2.73 µM)
[1]; [5]
  MIC comb.: 2 µg/mL (≈ 2.73 µM)
[1]; S. haemolyticus SH8578, pair Erythromycin / MBI 26
  MIC comb.: 0.5 µg/mL (≈ 0.681 µM)
[1]; S. haemolyticus SH8578, pair Erythromycin / MBI 31
  MIC comb.: 0.5 µg/mL (≈ 0.681 µM)
[1]; S. haemolyticus SH8597, pair Erythromycin / MBI 26
  MIC comb.: 0.5 µg/mL (≈ 0.681 µM)

## I L R R W P W W P W R R K [MBI 11B1CN]
bacteria; A. calcoaceticus AC001
  MIC: 32 µg/mL
bacteria; E. cloacae ECL007
  MIC: >128 µg/mL
bacteria; E. coli ECO003
  MIC: 8 µg/mL
bacteria; E. faecalis EFS004
  MIC: 8 µg/mL
bacteria; E. faecium EFM002
  MIC: 2 µg/mL
bacteria; K. pneumoniae KP002
  MIC: 64 µg/mL
bacteria; P. aeruginosa PA005
  MIC: >128 µg/mL
bacteria; S. aureus SA005
  MIC: 2 µg/mL
bacteria; S. epidermidis SE001
  MIC: 2 µg/mL
bacteria; S. maltophilia SMA001
  MIC: 64 µg/mL
bacteria; S. marcescens SMS004
  MIC: >128 µg/mL
[1]; E. faecalis EFS003
  Peptide MIC + Vancomycin: 32 µg/mL
  Vancomycin MIC + Peptide: 4 µg/mL
  FIC: 0.63
[1]; E. faecalis EFS003 (8. Vancomycin)
  Peptide MIC Alone: >128 µg/mL
[1]; E. faecalis EFS006
  Peptide MIC + Vancomycin: 0.25 µg/mL
  Vancomycin MIC + Peptide: 4 µg/mL
  FIC: 0.50
[1]; E. faecalis EFS006 (8. Vancomycin)
  Peptide MIC Alone: 128 µg/mL
[1]; E. faecalis EFS010
  Peptide MIC + Vancomycin: 8 µg/mL
  Vancomycin MIC + Peptide: 1 µg/mL
  FIC: 0.13
[1]; E. faecalis EFS010 (8. Vancomycin)
  Peptide MIC Alone: 128 µg/mL
[1]; E. faecalis EFS014
  Peptide MIC + Vancomycin: 2 µg/mL
  Vancomycin MIC + Peptide: 1 µg/mL
  FIC: 0.51
[1]; E. faecalis EFS014 (8. Vancomycin)
  Peptide MIC Alone: 4 µg/mL
[1]; E. faecium EFM004
  Peptide MIC + Vancomycin: 16 µg/mL
  Vancomycin MIC + Peptide: 0.5 µg/mL
  FIC: 0.50
[1]; E. faecium EFM004 (8. Vancomycin)
  Peptide MIC Alone: 32 µg/mL
[1]; E. faecium EFM007
  Peptide MIC + Vancomycin: 16 µg/mL
  Vancomycin MIC + Peptide: 4 µg/mL
  FIC: 0.28
[1]; E. faecium EFM007 (8. Vancomycin)
  Peptide MIC Alone: 64 µg/mL
[1]; E. faecium EFM009
  Peptide MIC + Vancomycin: 8 µg/mL
  Vancomycin MIC + Peptide: 4 µg/mL
  FIC: 0.25
[1]; E. faecium EFM009 (8. Vancomycin)
  Peptide MIC Alone: 64 µg/mL

## G K P R P Y S P I P T S P R P I R Y [MBI 31]
[1]; S. aureus SA7796, pair Methicillin / MBI 31
  Peptide MIC: 16 µg/mL
[1]; S. aureus SA7797, pair Methicillin / MBI 31
  Peptide MIC: 16 µg/mL
[1]; S. aureus SA7823, pair Methicillin / MBI 31
  Peptide MIC: 0.5 µg/mL
[1]; S. aureus SA7834, pair Methicillin / MBI 31
  Peptide MIC: 32 µg/mL
[1]; S. aureus SA7835, pair Methicillin / MBI 31
  Peptide MIC: 16 µg/mL
[1]; [2]
  Peptide MIC: 0.5 µg/mL
[1]; [3]
  Peptide MIC: 0.5 µg/mL
[1]; [4]
  Peptide MIC: 0.5 µg/mL
[1]; [5]
  Peptide MIC: 0.5 µg/mL

## I L K K W P W W P W R R [MBI 11G7CN]
Bacterial isolates; A. calcoaceticus 3
  Peptide MIC + Piperacillin: 2 µg/mL
  Peptide MIC Alone: 4 µg/mL
  Piperacillin MIC + Peptide: 4 µg/mL

## i L K K W P W W P W R R k [MBI 11E3CN]
bacteria; A. calcoaceticus AC001
  MIC: 16 µg/mL
bacteria; E. cloacae ECL007
  MIC: >128 µg/mL
bacteria; E. coli ECO001
  MIC: 4 µg/mL
bacteria; E. faecalis EFS004
  MIC: 8 µg/mL
bacteria; E. faecium EFM003
  MIC: 2 µg/mL
bacteria; H. influenzae HIN002
  MIC: >128 µg/mL
bacteria; K. pneumoniae KP002
  MIC: 32 µg/mL
bacteria; P. aeruginosa PA041
  MIC: 64 µg/mL
bacteria; P. mirabilis PM001
  MIC: >128 µg/mL
bacteria; S. aureus SA010
  MIC: 2 µg/mL
bacteria; S. epidermidis SE002
  MIC: 1 µg/mL
bacteria; S. maltophilia SMA001
  MIC: 32 µg/mL
bacteria; S. marcescens SMS004
  MIC: >128 µg/mL
bacteria; S. pneumoniae SBSPN2
  MIC: >128 µg/mL
bacteria; S. pneumoniae SPN044
  MIC: >128 µg/mL
bacteria; S. pyogenes SPY002
  MIC: 16 µg/mL

## I L K K W W W P W R K [MBI 11D14CN]
bacteria; E. faecalis EFS002
  MIC: 32 µg/mL
bacteria; E. faecium EFM003
  MIC: 1 µg/mL
bacteria; S. aureus SA009
  MIC: 4 µg/mL

## W W P W R R K [MBI 11D9M8]
bacteria; A. calcoaceticus AC002, agarose dilution
  MIC: 128 µg/mL
bacteria; E. cloacae ECL007, agarose dilution
  MIC: >128 µg/mL
bacteria; E. coli ECO005, agarose dilution
  MIC: >128 µg/mL
bacteria; E. faecalis EFS001, agarose dilution
  MIC: 8 µg/mL
bacteria; E. faecalis EFS002
  MIC: 128 µg/mL
bacteria; E. faecalis EFS008, agarose dilution
  MIC: 128 µg/mL
bacteria; E. faecium EFM002
  MIC: 32 µg/mL
bacteria; K. pneumoniae KP001, agarose dilution
  MIC: >128 µg/mL
bacteria; P. aeruginosa PA004, agarose dilution
  MIC: >128 µg/mL
bacteria; S. aureus SA007
  MIC: 32 µg/mL
bacteria; S. aureus SA014, agarose dilution
  MIC: 128 µg/mL
bacteria; S. aureus SA016
  MIC: 128 µg/mL
bacteria; S. aureus SA093, agarose dilution
  MIC: 8 µg/mL
bacteria; S. epidermidis SE010, agarose dilution
  MIC: 128 µg/mL
bacteria; S. maltophilia SMA002, agarose dilution
  MIC: >128 µg/mL
bacteria; S. marcescens SMS003, agarose dilution
  MIC: >128 µg/mL

## W W K K W P W W P W R R K [MBI 11C5CN]
bacteria; A. calcoaceticus AC001
  MIC: 32 µg/mL
bacteria; E. cloacae ECL007
  MIC: >128 µg/mL
bacteria; E. coli ECO001
  MIC: 8 µg/mL
bacteria; E. faecalis EFS002
  MIC: 16 µg/mL
bacteria; E. faecium EFM003
  MIC: 2 µg/mL
bacteria; K. pneumoniae KP002
  MIC: 16 µg/mL
bacteria; P. aeruginosa PA003
  MIC: 64 µg/mL
bacteria; S. aureus SA009
  MIC: 2 µg/mL
bacteria; S. epidermidis SE002
  MIC: 2 µg/mL
bacteria; S. maltophilia SMA002
  MIC: 16 µg/mL
bacteria; S. marcescens SMS004
  MIC: >28 µg/mL

## I L R R W P W W P W R R K [MBI 11B1CNW1]
bacteria; A. calcoaceticus AC002
  MIC: 16 µg/mL
bacteria; E. cloacae ECL007
  MIC: 64 µg/mL
bacteria; E. coli ECO005
  MIC: 32 µg/mL
bacteria; E. faecalis EFS004
  MIC: 8 µg/mL
bacteria; K. pneumoniae KP001
  MIC: 32 µg/mL
bacteria; P. aeruginosa PA004
  MIC: 64 µg/mL
bacteria; S. aureus SA014
  MIC: 16 µg/mL
bacteria; S. epidermidis SE010
  MIC: 8 µg/mL
bacteria; S. maltophilia SMA002
  MIC: 32 µg/mL
bacteria; S. marcescens SMS003
  MIC: >128 µg/mL

## I L P W K W P W W P W R R [MBI 10A]
bacteria; E. faecalis EFS004
  MIC: 16 µg/mL
bacteria; E. faecium EFM003
  MIC: 8 µg/mL
bacteria; S. aureus SA010
  MIC: 8 µg/mL

## CC[C@H](C)[C@H](NC(=O)[C@H](CC(C)C)NC(=O)[C@H](C)NC(=O)[C@@H]1CCCN1C(=O)[C@H](CC(C)C)NC(=O)[C@H](C)NC(=O)[C@@H](NC(=O)[C@@H](NC(=O)[C@@H](NC(=O)[C@@H](NC(=O)[C@H](CCCCN)NC(=O)[C@H](CCCCN)NC(=O)[C@H](CC(C)C)NC(=O)[C@@H](NC(=O)[C@H](CCCCN)NC(=O)[C@@H](NC(=O)[C@H](CC(C)C)NC(=O)[C@H](CC(N)=O)NC(=O)[C@H](CCCCN)NC(=O)[C@@H](NC(=O)[C@H](Cc1ccccc1)NC(=O)[C@H](CO)NC(=O)[C@H](CCCCN)NC(=O)[C@H](Cc1c[nH]c2ccccc12)NC(=O)[C@@H](N)CCCCN)[C@@H](C)CC)[C@@H](C)O)C(C)C)C(C)C)C(C)C)[C@@H](C)O)[C@@H](C)O)C(=O)N[C@@H](CO)C(=O)O [MBI 29A2, KWKSFIKNLTKVLKKVVTTALPALIS] (H-KWKSFIKNLTKVLKKVVTTALPALIS-OH; N-terminus and C-terminus assumed)
Bacterial isolates; P. aeruginosa PA24 (Ciprofloxacin section)
  Peptide MI Alone: 64 µg/mL
Bacterial isolates; S. aureus SA10 (Ciprofloxacin section)
  Peptide MI Alone: 4 µg/mL
Bacterial isolates; S. aureus SA93 (Ciprofloxacin section)
  Peptide MI Alone: 2 µg/mL

## I L K K P W W P W R R K [MBI 11G3CN]
bacteria; E. cloacae ECL007
  MIC: >128 µg/mL
bacteria; E. coli ECO003
  MIC: 64 µg/mL
bacteria; E. faecalis EFS002
  MIC: 64 µg/mL
bacteria; E. faecium EFM002
  MIC: 32 µg/mL
bacteria; K. pneumoniae KP001
  MIC: >128 µg/mL
bacteria; P. aeruginosa PA003
  MIC: >128 µg/mL
bacteria; S. aureus SA009
  MIC: 8 µg/mL
bacteria; S. maltophilia SMA001
  MIC: >128 µg/mL
bacteria; S. marcescens SMS004
  MIC: >128 µg/mL
